In one data set the target is T1, sSema4D (Mus musculus, UniProt O09126).
T1 construct: the free Sema4D protein after enzyme cleavage of Sema4D; purchased R&D Systems
T1 sequence (O09126 24-733): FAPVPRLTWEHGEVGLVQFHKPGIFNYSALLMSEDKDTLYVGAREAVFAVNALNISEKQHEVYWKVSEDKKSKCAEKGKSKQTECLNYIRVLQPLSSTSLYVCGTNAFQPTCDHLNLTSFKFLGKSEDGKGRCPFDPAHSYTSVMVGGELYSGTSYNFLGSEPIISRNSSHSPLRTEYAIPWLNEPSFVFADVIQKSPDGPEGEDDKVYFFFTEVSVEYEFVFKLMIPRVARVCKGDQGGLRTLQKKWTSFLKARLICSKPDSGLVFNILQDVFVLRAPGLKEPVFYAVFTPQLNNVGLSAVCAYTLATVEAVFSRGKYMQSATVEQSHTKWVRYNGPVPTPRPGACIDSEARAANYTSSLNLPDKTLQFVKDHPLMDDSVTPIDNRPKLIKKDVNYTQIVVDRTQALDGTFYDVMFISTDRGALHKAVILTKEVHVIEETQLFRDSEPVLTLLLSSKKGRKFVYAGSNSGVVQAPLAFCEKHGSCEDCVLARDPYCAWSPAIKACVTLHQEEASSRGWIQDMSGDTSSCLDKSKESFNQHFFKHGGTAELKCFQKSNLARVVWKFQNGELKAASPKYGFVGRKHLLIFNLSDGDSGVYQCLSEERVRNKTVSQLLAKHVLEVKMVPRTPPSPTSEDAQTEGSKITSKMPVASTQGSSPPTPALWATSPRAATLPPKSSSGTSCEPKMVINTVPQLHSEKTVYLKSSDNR
Briefly: Reduction of sSema4D concentration in endothelial cell culture medium (ELISA). Format: cell-based. The note with it: for sSema4D concentration: medium with 1600 ng/mL sSema4D, FH 20 μM, BMA-12 2 μg/μL; for sustained reduction of sSema4D concentration: added to endothelial cells, 12 to 48 h. The protocol: Endothelial cells were uniformly seeded in 6-well cell culture plates and cultured in a 5% CO2 incubator at 37° C. for 24 h. The nano small peptides FH, FG, DMSO, and Sema4D neutralizing antibody (BMA-12) were added to the medium (the concentration of sSema4D in the medium was 1600 ng/mL) to ensure that the final concentration of FH and FG was 20 μM, and the final concentration of the sSema4D neutralizing antibody (BMA-12) was 2 μg/μL, an equal volume of DMSO was then added as a control, and the culture plates were cultured in an incubator for 12, 24, 36, and 48 h, respectively. The cell culture medium was then collected and centrifuged. The supernatant was taken and the expression of Sema4D protein in the supernatant was detected using an ELISA kit (Shanghai Yuanmu Biotechnology Co., Ltd.).

The test system of another data set is OIR model mice. Briefly: Fundus angiogenesis in OIR model (Isolectin B4, confocal). It counts as in vivo, mouse. To be noted: for percentage of abnormal blood vessels in the total retinal area: 2 nmol injected into the vitreous on day 12, read on day 17; for treatment effect on fundus angiogenesis compared with BMA-12: 2 nmol vs 1 μg BMA-12, intravitreal. The protocol: Treatment group (OIR): After giving birth, 3-4 month old C57BL/6 mother mice were placed in an oxygen chamber with 75% oxygen together with 7 day old young mice, and the young mice and the mother mice were taken out on the 12th day of birth of the young mice. Immediately after the young mice were anesthetized, 2 nmol of FH, 2 nmol of FG, and 1 μg of Sema4D neutralizing antibody (BMA-12) (BMA-12, i.e., anti-Sema4D) were injected into the vitreous, and an equal volume of DMSO was used as a control. The young mice were then further raised in normal air for 5 days; the young mice were anesthetized on the 17th day of birth, and after cardiac perfusion with normal saline, the eyeballs were separated and then fixed, stained with Isolectin B4 overnight at 4° C., flatly spread on a glass slide, and photographed.
Control group (Normal): Young mice, grown with normoxia, were anesthetized on the 17th day of birth. After cardiac perfusion with normal saline, the eyeballs were taken out, and the retinas were peeled off and then fixed with 4% paraformaldehyde, stained with Isolectin B4 at 4° C. overnight, flatly spread on a glass slide, and photographed
Laser confocal was carried out to detect retinal angiogenesis, and ImageJ was carried out to calculate the ratio of retinal neovascularization clusters to the entire retinal area, that is, the proportion of new blood vessels. […] It can be seen in FIG. 4A that the treatment effect of FH is the best.

Data set [1] has as its system endothelial cells (primary endothelial cells of mouse brain microvessels). Briefly: CCK8 cytotoxicity assay. To be noted: 20 μM; 12, 14, and 36 h.
Data set [2] deals with mouse brain microvascular endothelial cells. Briefly: sSema4D-induced endothelial cell leakage (transmembrane resistance). The note with it: 36 h; for effect on endothelial cell leakage compared with BMA-12: 20 μM vs BMA-12 2 μg/μL; for sSema4D-induced endothelial cell leakage: 20 μM, sSema4D 1600 ng/mL. It counts as cell-based. The protocol: A layer of fibronectin was first applied to coat the upper layer of a 24-well transwell chamber (0.4 um) and incubated at room temperature for 1 h; after coating, the mouse brain microvascular endothelial cells were seeded, and cultured for 5 days until the cells were full, and then FH (20 μM), FG (20 μM), and Sema4D neutralizing antibody (BMA-12) (2 μg/μL) were added to the medium (the concentration of sSema4D in the medium was 1600 ng/mL), respectively. An equal volume of DMSO was added as a control, and ECM was used as a blank control. After incubation for 36 h, the resistance value was measured by a cell transmembrane resistance measuring instrument.

A short description of data set [3]: In vivo imaging of small animals, entry into vitreous humor. To be noted: eye drops (10 μL, 20 μM, three times) and vitreous injection (1 μl, 20 μM).
Description: (§1) 10 μL of FH and FG eye drops (with the concentration of 20 μM, the solvent therein was artificial tears) were instilled on the eyeball surface of mice (8-week-old C57 male mice), once at an interval of 1 h. One hour after the third eye drop, the mice were anesthetized to have cardiac perfusion, the eyeballs of the mice were taken out, the connective tissue on the eye surface was trimmed, and the eyeballs were washed with PBS solution for several times to remove the nano eye drops from the surface of the eyeballs. The eyeball was placed in a small animal imager (at emission wavelength of 535 nm and excitation wavelength of 490 nm) for image acquisition.
The conditions of data set [4]: mouse, in vivo.
Description: as §1

Where two headings read alike, the source gives them in different places. Non-standard residues stand in square brackets, D forms with d. Residues, ends and D or L forms follow the SMILES beside them. No end group written: not given here. *: point of attachment. Palmitoyl = CCCCCCCCCCCCCCCC(=O)*

With `CCCCCCCCCCCCCCCC(=O)N[C@H](Cc1ccccc1)C(=O)N[C@@H](Cc1ccccc1)C(=O)N[C@H](C(=O)N[C@@H](CC(C)C)C(=O)N[C@@H](CCCCN)C(=O)N[C@@H](CCCCN)C(=O)N[C@@H](CCC(N)=O)C(=O)N[C@@H](CCCCN)C(=O)N[C@@H](CCCNC(=N)N)C(=O)N1CCC[C@H]1C(=O)N[C@@H](CCCNC(=N)N)C(=O)N[C@@H](Cc1c[nH]cn1)C(=O)O)C(C)C` [FH] (Palmitoyl-[dF]FVLKKQKRPRH-OH), the sSema4D concentration entry on sSema4D (24 h, endothelial cells) is reported as “can reduce the sSema4D concentration”. Also, on sSema4D (36 h, endothelial cells), the sSema4D concentration result was “can still reduce the sSema4D concentration”. Moreover, the “sustained reduction of sSema4D concentration” value at sSema4D (20 μM) is reported as “can sustainably reduce the concentration of sSema4D”. Further, at sSema4D (endothelial cells, within the same action time, 20 μM), the “effect on sSema4D concentration, FH compared with FG” value was “better than that of FG”. For the same molecule, in the data set on OIR model mice, the “percentage of abnormal blood vessels in the total retinal area” value is “reduce the percentage of abnormal blood vessels in the total retinal area” and the “treatment effect on fundus angiogenesis compared with BMA-12” value is listed as “comparable to that of the Sema4D neutralizing antibody (BMA-12)”. Further, the “treatment effect among groups in FIG. 4A” value with OIR model mice (2 nmol intravitreal) is listed as “the best”. Also, in data set [1], the “toxic effects on endothelial cells” value is “did not cause toxic effects”. Besides, in data set [2], the “effect on endothelial cell leakage compared with BMA-12” value is “comparable to that of Sema4D neutralizing antibody (BMA-12)” and the “sSema4D-induced endothelial cell leakage” value is “can significantly inhibit sSema4D-induced endothelial cell leakage”. For the same molecule, in data set [3], the “entry into the vitreous humor of mice” value is recorded as “entered the vitreous humor of mice”.

Regarding Palmitoyl-FFVLKKNKAAKG [FG], the “sustained reduction of sSema4D concentration” value at sSema4D (20 μM) is on record as “can sustainably reduce the concentration of sSema4D”. For the same molecule, in the data set on OIR model mice, the “percentage of abnormal blood vessels in the total retinal area” value is given as “reduce the percentage of abnormal blood vessels in the total retinal area” and the “treatment effect on fundus angiogenesis compared with BMA-12” value was “comparable to that of the Sema4D neutralizing antibody (BMA-12)”. In data set [4], the “entry into the vitreous humor of mice” value was “entered the vitreous humor of mice”. Also, in data set [2], the “effect on endothelial cell leakage compared with BMA-12” value is on record as “comparable to that of Sema4D neutralizing antibody (BMA-12)” and the “sSema4D-induced endothelial cell leakage” value is reported as “can significantly inhibit sSema4D-induced endothelial cell leakage”.
